Literature values as cited in EP3332769A1, “SOLID ORAL PHARMACEUTICAL COMPOSITIONS OF TICAGRELOR” (Sanovel Ilac Sanayi ve Ticaret A.S., priority 2016, dated 2018).
Values after ≈ are worked out from the molar mass of the structure shown.

Details: in water

For CCCSc1nc(N[C@@H]2C[C@H]2c2ccc(F)c(F)c2)c2nnn([C@@H]3C[C@H](OCCO)[C@@H](O)[C@H]3O)c2n1 [Ticagrelor, (1 S,2S,3R,5S)-3-[7-[(1 R,2S)-2-(3,4-Difluorophenyl)cyclopropylamino]-5-(propylthio)-3H-[1,2,3]triazolo[4,5-d]pyrimidin-3-yl] -5-(2-hydroxyethoxy) cyclopentane-1,2-diol], the aqueous solubility is given as 10 µg/mL (≈ 19.1 µM).
